Experimental data as given in patent publication EP0345251B1 (priority 1986, dated 1988).

Experiments:
[1] = Acute vincristine toxicity in mice, with and without Cronassial; format: in vivo, Male Swiss Schneider mice
Procedure: (§1) Toxicity acute and chronic. Male Swiss Schneider mice with a body weight of 25-30g were used for these experiments. Mice were usually kept in groups of not more than 8 in standard cages. Food and water were supplied ad libidum. The animals were kept in experimental rooms under closely controlled conditions. They were weighed daily. For acute vincristine toxicity in chicks, 48 hour old SPF chicks were used.
(§2) Vincristine. A standard vial of 'Oncovin' (Eli Lilly Co.) containing 1 mg of vincristine was used. It was made up with the appropriate volume of diluting fluid to give the final concentration required to inject 0.1 ml/10 g body weight.
(§3) Cronassial®. A solution of this substance, which is a mixture of four gangliosides, was prepared by the addition of a volume of sterile distilled water sufficient to give a concentration of 200 mg/kg in a volume of 0.2 ml. This dose was given to mice of approximately 20g.

[2] = tested on: sarcoma S180; assay: Antitumour activity against sarcoma S180 (tumour weight); format: in vivo, Male Swiss Schneider mice; conditions: S180, host SN; VCR 0.5 mg/kg ip days 1-6; in combination CRON 200 mg/kg ip days 1-6, 6hrs before VCR; CMC-controls 1.05
Excerpt: (§4) Antitumour effects. Male Swiss Schneider mice of 27g body weight were used for the sarcoma S180 experiments: female C₅₇Bl mice of 20g body weight were used for the B16 melanoma experiments; male BDF₁ mice of 30g body weight were used for the L1210 leukaemia experiments; and C₅₇Bl mice of 20g body weight were used for the Lewis lung experiments.
Sarcoma S180. This tumour has been transplanted in the same strain of mouse for more than 10 years.
Transplantation was done by subcutaneous inoculation of 0.1 ml of a tumour mash made by finely mincing viable tumour tissue and passing it repeatedly through a 26 gauge needle into a sterile Petri dish. 0.1 ml of penicillin (20,000 m/ml) and streptomycin (20,000 m/ml) were added to the mash, as well as neomycin (5 mgs).

[3] = tested on: melanoma B16; assay: Antitumour activity against melanoma B16 (tumour weight); format: in vivo, female C₅₇Bl mice; conditions: B16, host C5781; VCR 0.5 mg/kg ip days 1-4,7-11; in combination CRON 200 mg/kg, 6hrs before VCR; CMC-controls 2.33
Procedure: as §4
Melanoma B16. This tumour was prepared for inoculation in a manner identical to that used for the S180 sarcoma.

[4] = Acute vincristine toxicity in chicks, with and without Cronassial; format: in vivo, 48 hour old SPF chicks; conditions: for SURVIVORS AT 24hrs / SURVIVORS AT 28hrs / SURVIVORS AT 52hrs: acute, SPF 48hr chick, in combination CRON 200 mg/kg at same time
Procedure: as §1
In contrast,of those chicks which received 200 mg/kg Cronassial® at the same time as the vincristine, only 2/5 had died at 24 hours but only 1 remained alive at 28 hours.
With 4 mg/kg vincristine, 4/5 chicks survived for 24 hours but only 1/5 survived for 28 hours. The chicks which additionally, received 200 mg/kg Cronassial® survived better with 3/5 surviving to 28 hours.

[5] = tested on: leukaemia L1210; assay: Antitumour activity against leukaemia L1210 (survival); format: in vivo, BDF₁ mice; conditions: L1210, host BDF1; VCR 1.0 mg/kg ip days 1-3; in combination CRON 200 mg/kg ip days 1-3, same time as VCR; CMC-controls 8.0
Procedure: Antitumour effects. Male Swiss Schneider mice of 27g body weight were used for the sarcoma S180 experiments: female C₅₇Bl mice of 20g body weight were used for the B16 melanoma experiments; […]; and C₅₇Bl mice of 20g body weight were used for the Lewis lung experiments.
L1210. Spleens were removed from animals 7 days after inoculation of L1210 cells and these spleens were finely minced with 1:100 isotonic saline. 0.1 ml of this spleen and leukaemia L1210 cell suspension was then injected subcutaneously into the flank of each BDF₁.

[6] = Chronic vincristine toxicity in mice, with and without Cronassial; format: in vivo, Male Swiss Schneider mice; conditions: for SURVIVORS No.at 30 d / survival at 720 h: chronic, host SN; for survival at 720 h: ip, 200 mg/kg, read-out: SURVIVAL % at 30 d
Procedure: as §1, §2, §3
Giving daily injections of vincristine of 0.8 mg/kg for 5 days was close to the LD₅₀. By giving 200 mg/kg Cronassial® at the same time as the vincristine, the number of survivors at 30 days was increased to 100% Almost identical results were obtained by using 1 mg/kg vincristine, even though the drugs were administered for only 4 days. However the total dosage of vincristine administered in the two experiments (4 mg/kg) was identical. Increasing the cumulative dose of vincristine from 4 to 5 mg/kg increased the mortality of the mice to 100%. With this overwhelming toxicity, there was little or no protection offered by the Cronassial®.

## CC[C@]1(O)C[C@H]2CN(CCc3c([nH]c4ccccc34)[C@@](C(=O)OC)(c3cc4c(cc3OC)N(C=O)[C@H]3[C@@](O)(C(=O)OC)[C@H](OC(C)=O)[C@]5(CC)C=CCN6CC[C@]43[C@@H]65)C2)C1 [VCR, vincristine]
[1]; acute, host SN, VCR 3.0 mg/kg iv day 1, in combination CRON 200 mg/kg ip day 1, 6hrs before VCR
  SURVIVORS No.at 30 d: 2/8
[1]; mouse, in vivo, acute, host SN, VCR 3.0 mg/kg iv day 1, in combination CRON 200 mg/kg ip day 1, 6hrs before VCR, read-out: SURVIVAL % at 30 d
  survival at 720 h: 25%
[1]; mouse, in vivo, vincristine 3.0 mg/kg, one intravenous injection, Swiss Schneider mice, in combination 200 mg/kg Cronassial 6 hours before, read-out: deaths by day 30
  mortality at 720 h: 75%
[2]
  TUMOUR WEIGHTS MEAN: 0.64 g
[3]
  TUMOUR WEIGHTS MEAN: 1.46 g
[4]; 48 hour old chicks, vincristine 2 mg/kg, in combination Cronassial also given
  toxicity: little toxicity
[4]; 48 hour old chicks, vincristine 6 mg/kg
  chicks with no acute neurotoxic signs during the first 4 hours: 3/4
[4]; 48 hour old chicks, vincristine 6 mg/kg, in combination 200 mg/kg Cronassial at the same time
  dead at 24 hours: All the chicks were dead
[4]; VCR 2.0 mg/kg ip day 1
  SURVIVORS AT 24hrs: 2/2
  SURVIVORS AT 28hrs: 2/2
  SURVIVORS AT 52hrs: 1/2
[4]; VCR 4.0 mg/kg ip day 1
  SURVIVORS AT 24hrs: 4/5
  SURVIVORS AT 28hrs: 1/5
  SURVIVORS AT 52hrs: 1/5
[4]; VCR 6.0 mg/kg ip day 1
  SURVIVORS AT 24hrs: 0/4
[5]
  Mean survival time: 7.8 days
[6]; VCR 0.8 mg/kg ip days 1-5, in combination CRON 200 mg/kg ip days 1-5, 6hrs before VCR
  SURVIVORS No.at 30 d: 5/8
[6]; VCR 1.0 mg/kg ip days 1-4, in combination CRON 200 mg/kg ip days 1-4, 6hrs before VCR
  SURVIVORS No.at 30 d: 3/8
[6]; VCR 1.0 mg/kg ip days 1-5, in combination CRON 200 mg/kg ip days 1-5, 6hrs before VCR
  SURVIVORS No.at 30 d: 0/6
[6]; mouse, in vivo, VCR 0.8 mg/kg ip days 1-5, in combination CRON 200 mg/kg ip days 1-5, 6hrs before VCR
  survival at 720 h: 62.5%
[6]; mouse, in vivo, VCR 1.0 mg/kg ip days 1-4, in combination CRON 200 mg/kg ip days 1-4, 6hrs before VCR
  survival at 720 h: 37.5%
[6]; mouse, in vivo, VCR 1.0 mg/kg ip days 1-5, in combination CRON 200 mg/kg ip days 1-5, 6hrs before VCR
  survival at 720 h: 0%
[6]; mouse, in vivo, cumulative dose of vincristine 5 mg/kg, mice
  mortality: 100%
[6]; mouse, in vivo, daily injections of vincristine for 5 days, mice, read-out: LD₅₀
  LD50: ~0.8 mg/kg
